Test results taken from PMC9823811, “Anti-Microbial Activity of Aliphatic Alcohols from Chinese Black Cardamom (Amomum tsao-ko) against Mycobacterium tuberculosis H37Rv” (Plants, 2022).
In brackets after ≈: the same amount, converted by molar mass.

Experiments:
[1] = tested on: M. tuberculosis H37Rv (ATCC 27294); experiment: Microplate Alamar Blue Assay (MABA), MIC against replicating M. tuberculosis; format: cell-based, Mycobacterium tuberculosis; conditions: 7 days at 37 °C; for MIC: Mycobacterium tuberculosis, 168 h
[2] = tested on: non-replicating M. tuberculosis H37Rv_LuxABCDE; experiment: Low oxygen recovery assay (LORA), MIC against non-replicating M. tuberculosis; format: cell-based, Mycobacterium tuberculosis; conditions: for MIC: Mycobacterium tuberculosis; for MIC / MIC against M. tuberculosis H37Rv, LORA: non-replicating M. tuberculosis H37Rv, low oxygen
[3] = Cytotoxicity against Vero cells (resazurin); conditions: African green monkey
[4] = tested on: Vero cells (ATCC CRL-1586); conditions: African green monkey, 72 h
[5] = tested on: Vero cells (ATCC CRL-1586); experiment: Cytotoxicity against Vero cells (resazurin); conditions: Vero cells, 72 h
[6] = MIC = lowest concentration reducing fluorescence by 90%

Compound | MIC [1, 6] [µg/mL] | MIC ([1]; […]) [µg/mL] | MIC [2] [µg/mL] | IC50 at 72 h ([3]; Vero cells (ATCC CRL-1586)) [µg/mL] | also measured
OC/C=C/CCCCCCCO [Compound 2, (E)-2-decene-1,10-diol] | 29.7 (≈ 172 µM) | > 20 | 95.4 (≈ 554 µM) | > 200 | Vero cytotoxicity, percentage in parentheses after the IC50 bound [4]: 25%
OC/C=C/CCCC/C=C/CO [Compound 5, (2E,8E)-2,8-decadiene-1,10-diol] | 4.3 (≈ 25.3 µM) | < 10 | 5.9 (≈ 34.7 µM) | 72.9 (≈ 428 µM) | 
CC(=O)OC/C=C/CC/C=C/COC(C)=O [Compound 6, (2E,6E)-1,8-diacetoxy-2,6-octadiene] | 26.1 (≈ 115 µM) | > 20 | > 100 | 76.8 (≈ 339 µM) | 
CCCCCCC/C=C/C=O [Compound 7, (E)-decenal] | > 100 |  | > 100 |  | 
CCCCCCC/C=C/C(O)C(C)=O (stereo not drawn) [Compound 8, (E)-1-acetyl-2-decene-1-ol] | > 100 |  | > 100 |  | 
CCCCCCCCC/C=C/C(O)C(C)=O (stereo not drawn) [Compound 9, (E)-1-acetyl-2-dodecene-1-ol] | > 100 |  | > 100 |  | 
CC(C)=CCC/C(C)=C/CO [Compound 10, geraniol] |  | > 100 | > 100 |  | 
CC(=O)OC/C=C(\C)CCC=C(C)C [Compound 11, geranyl acetate] | 88.6 | > 20 | > 100 |  | IC50 at 72 h [3]: > 200 µg/mL
C=C[C@](C)(O)CC/C=C(\C)CCC=C(C)C [Compound 12, (3R)-(E)-nerolidol] | > 100 |  | > 100 |  | 
NNC(=O)c1ccncc1 [Isoniazid, reference compound] | 0.03 (≈ 0.219 µM) |  | > 18 |  | 
CC(=O)NC[C@H]1CN(c2ccc(N3CCOCC3)c(F)c2)C(=O)O1 [Linezolid, reference compound] | 0.16 (≈ 0.474 µM) |  | 0.62 (≈ 1.84 µM) |  | 
CO[C@H]1/C=C/O[C@@]2(C)Oc3c(C)c(O)c4c(O)c(c(/C=N/N5CCN(C)CC5)c(O)c4c3C2=O)NC(=O)/C(C)=C\C=C\[C@H](C)[C@H](O)[C@@H](C)[C@@H](O)[C@@H](C)[C@H](OC(C)=O)[C@@H]1C [Rifampicin, reference compound] | 0.025 (≈ 0.0304 µM) |  | 0.14 (≈ 0.17 µM) | > 100 | 
CC(=O)OC/C=C/CCCC/C=C/CO [Synthetic tsaokol A, tsaokol A] | 1.4 (≈ 6.59 µM) |  |  | > 200 | Cytotoxicity against Vero Cells IC50 [5]: identical to those of the isolated tsaokol A (3); Vero cytotoxicity, percentage in parentheses after the IC50 bound [4]: 10%
(2E,8E)-1,10-diacetyl-2,8-decadiene-1,10-diol [Compound 4] |  |  |  |  | MIC against M. tuberculosis H37Rv, MABA [1, 6]: 1.1 µg/mL; MIC against M. tuberculosis H37Rv, MABA ([1]; […]): lower than 10 µg/mL; MIC against M. tuberculosis H37Rv, LORA [2]: 21.6 µg/mL; Cytotoxicity against Vero Cells IC50 [5]: 143.6 µg/mL
(2E,8E)-1-acetyl-2,8-decadiene-1,10-diol [Compound 3] |  |  |  |  | MIC against M. tuberculosis H37Rv, MABA [1, 6]: 0.6 µg/mL; MIC against M. tuberculosis H37Rv, MABA ([1]; […]): lower than 10 µg/mL; Ratio of non-replicating MIC (LORA) over replicating MIC (MABA) ([2]; LORA MIC relative to MABA MIC): only two-fold higher; MIC against M. tuberculosis H37Rv, LORA [2]: 1.4 µg/mL; Cytotoxicity against Vero Cells IC50 [5]: > 200 µg/mL
(E)-1-acetyl-8-decene-1,10-diol [Compound 1] |  |  |  |  | MIC against M. tuberculosis H37Rv, MABA [1, 6]: 10.2 µg/mL; MIC against M. tuberculosis H37Rv, MABA ([1]; […]): lower than 10 µg/mL; MIC against M. tuberculosis H37Rv, LORA [2]: 61.5 µg/mL; Cytotoxicity against Vero Cells IC50 [5]: > 200 µg/mL
